Measurements reported in patent US20050060764A1, “Mouse model for bone metabolism” (priority 2003, published 2005).
“Also recorded” adds a separate entry of the source. Strand notation (5' to 3'): a small letter for the sugar, then the base; units joined by * are phosphorothioate-linked, units joined directly phosphodiester-linked; [ ] holds rarer units or linkages, { } end groups; capitals alone tell only the bases. e = 2'-O-(2-methoxyethyl) (MOE); [5mC] = 5-methylcytosine; d = 2'-deoxy (DNA)

How the values were obtained:
[1] = tested on: RANKL mRNA; assay: Antisense inhibition of RANKL mRNA expression followed by PTH treatment in primary mouse osteoblast cells: dose response (Table 8); format: cell-based; details: for % RANKL mRNA inhibition: 10 nM PTH last 2 h, relative to PTH alone
Experimental: Primary mouse osteoblasts were prepared from calvaria of neonatal mice purchased from Charles River Laboratories. […] Cells were not passaged. Cells were seeded onto 6-well plates (Falcon-Primaria #353846) at a density of 50,000 cells/well for use in antisense oligonucleotide transfection.
In a further embodiment of this invention, the effect of RANKL antisense oligonucleotides and PTH treatment on the expression of RANKL was determined in primary osteoblast cells isolated from mice skull caps.
ISIS 143624 ([…], SEQ ID NO: 348) was used as a control oligonucleotide. […] All cytidine residues are 5-methylcytidines.
Primary osteoblastic cells were transfected for 24 hours with either Isis 180819 (SEQ ID NO: 185) or the control oligo ISIS 143624 (SEQ ID NO: 348) at a dose of […], 125 nM, 250 nM, or 500 nM by the methods described herein but using the transfection reagent FuGENE 6 (Roche Applied Science, Indianapolis, Ind.). During the last 2 hours of oligonucleotide transfection, the cells were treated with 10 nM PTH. The RNA was then harvested and the expression levels of […] were measured by the methods described herein. The results are expressed as percent inhibition relative to PTH treatment alone and represent the average from three experiments.

[2] = tested on: RANKL mRNA; assay: as above; format: cell-based; details: 63 nM oligonucleotide 24 h, 10 nM PTH last 2 h, relative to PTH alone
[3] = tested on: mouse RANKL mRNA; assay: Antisense inhibition of mouse RANKL mRNA levels in C2C12 cells, quantitative real-time PCR (Table 2); format: cell-based; design: concentration or dose not given beside the values; details: averages from three experiments
Summary of the method: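 C2C12 cells seeded at ~10,000 cells/cm^2, treated with antisense oligonucleotides (all C as 5-methylcytidine) in triplicate and harvested 16-24 h later. Mouse RANKL mRNA quantified by real-time RT-PCR with a FAM/TAMRA probe, with mouse GAPDH (JOE/TAMRA probe) as reference.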

[4] = tested on: RANKL mRNA; assay: Antisense inhibition of RANKL mRNA in proximal tibia and calvaria of mice after PTH infusion: dose response and delivery method (Table 9); format: in vivo, mouse
Experimental: In accordance with the present invention, the levels of RANKL in the proximal tibia and calvaria in mice were measured following antisense oligonucleotide treatment and PTH infusion.
Female Swiss-Webster mice (5-8 wks old) fed a low-calcium diet were treated with ISIS 180819 (SEQ ID NO: 185) by subcutaneous injection at a dose of either 30 mg/kg or 50 mg/kg or intraperitoneal injection at a dose of either 15 mg/kg, 30 mg/kg or 50 mg/kg. After 2 weeks of daily treatment, the mice were infused with PTH at a dose of 1 ug/100 g/6 hr. After 24 hours of PTH infusion (total PTH delivery of 4 ug/100 g), the mice were sacrificed. The proximal tibia and calvaria were isolated and the level of RANKL mRNA expression was determined in each using two different primer-probe sets to confirm the results. The first primer-probe set was #1207, consisting of […] (forward primer, SEQ ID NO: 349), […] (reverse primer, SEQ ID NO: 350) and […] (probe, SEQ ID NO: 351). The second primer-probe set was #1015, consisting of […] (forward primer, SEQ ID NO: 352), […] (reverse primer, SEQ ID NO: 353) and […] (probe, SEQ ID NO: 354). The results are expressed as percent inhibition relative to PTH treatment alone and represent the average of eight mice per group.

[5] = Serum calcium concentration 24 hours after PTH infusion in mice treated with RANKL antisense oligonucleotides (Table 10); format: in vivo, mouse; details: for serum calcium: then 24 h PTH infusion
Experimental: In accordance with the present invention, the effect of antisense oligonucleotide inhibition on PTH-induced serum calcium concentration increase was measured in mice. The serum calcium concentration in mice was measured as a function of antisense oligonucleotide dose. Calcitonin, a known bone antiresorptive agent, was used as a control for antiresorptive activity.
(§1) Female Swiss-Webster (5-8 wks old) mice fed a low-calcium diet were dosed subcutaneously for two weeks with either the oligonucleotides ISIS 180819 (SEQ ID NO: 185) or 180814 (SEQ ID NO: 180) at concentrations of 5 mg/kg, 15 mg/kg, 30 mg/kg, or 40 mg/kg. A control group of mice were treated with calcitonin (400 ng) plus PTH (1 ug/100 g/6 hr), PTH alone (1 ug/100 g/6 hr) or saline. Treatment with oligonucleotides was followed with infusion of PTH by subcutaneously implanted mini-pumps at a dose of 1 ug/100 g/6 hr. After 24 hours of PTH infusion (total PTH delivery of 4 ug/100 g), the mice were sacrificed and the serum calcium concentration was measured with the Sigma Diagnostics Calcium Kit (Sigma-Aldrich). The data, summarized in Table 10 are averages from eight mice. Percent mRNA inhibition is normalized to PTH alone treatment.

[6] = tested on: RANKL mRNA; assay: RANKL mRNA % inhibition after PTH infusion in mice treated with RANKL antisense oligonucleotides for two weeks (Table 10); format: in vivo, mouse; details: then 24 h PTH infusion, normalized to PTH alone
Experimental: as §1

[7] = tested on: mouse RANKL mRNA; assay: Antisense inhibition of mouse RANKL mRNA in C2C12 cells: dose response (Table 5); format: cell-based; details: relative to untreated control
Experimental: Cells were seeded into 24-well plates (Falcon-353047 at a density of ˜10,000 cells/cm^2 for use in antisense oligonucleotide transfection.
Cells are treated and data are obtained in triplicate. […] Cells were harvested 16-24 hours after oligonucleotide treatment.
Probes and primers to mouse RANKL were designed to hybridize to a mouse RANKL sequence, using published sequence information (GenBank accession number AF013170.1, incorporated herein as SEQ ID NO:ll). For mouse RANKL the PCR primers were: • forward primer: […] (SEQ ID NO:12) • reverse primer: […] (SEQ ID NO: 13) and • the PCR probe was: FAM-[…]-TAMRA (SEQ ID NO: 14) where FAM is the fluorescent reporter dye and TAMRA is the quencher dye. For mouse GAPDH the PCR primers were: • forward primer: […](SEQ ID NO:15) • reverse primer: […](SEQ ID NO:16) and the • PCR probe was: 5′ JOE-[…]-TAMRA 3′ (SEQ ID NO: 17) where JOE is the fluorescent reporter dye and TAMRA is the quencher dye.
In accordance with the present invention, a subset of the antisense oligonucleotides in Example 16 was further investigated in dose-response studies. The oligonucleotides used in this investigation were ISIS 180812 (SEQ ID NO: 178), ISIS 180814 (SEQ ID NO: 180), ISIS 180819 (SEQ ID NO: 185), ISIS 180828 (SEQ ID NO: 194) and the control oligonucleotide ISIS 101757 ([…], SEQ ID NO: 355). […] All cytidine residues are 5-methylcytidines.
C2C12 cells were treated with the oligonucleotides at 10, 50, 75, 100, and 150 nM as described in other examples herein. […] The results are expressed as percent inhibition relative to the untreated control. The data, shown in Table 5, are averages from two experiments and illustrate the oligonucleotides of the present invention are able to downregulate RANKL mRNA expression in a dose-dependent manner.

[8] = 5 mg/kg subcutaneously two weeks
[9] = 15 mg/kg subcutaneously two weeks
[10] = 30 mg/kg subcutaneously two weeks
[11] = 40 mg/kg subcutaneously two weeks

With “143624 (antisense eT*eG*e[5mC]*eT*e[5mC]*dA*dG*d[5mC]*dG*dA*dG*dT*dG*dT*dG*e[5mC]*e[5mC]*eA*eG*e[5mC]) [compound 143624]” the “% RANKL mRNA inhibition” value ([1]; 125 nM oligonucleotide 24 h) was 3%, the “% RANKL mRNA inhibition” value ([1]; 250 nM oligonucleotide 24 h) was 0% and the “% RANKL mRNA inhibition” value ([1]; 500 nM oligonucleotide 24 h) was 9%. For the same substance, the “% RANKL mRNA inhibition” value [2] was 4%.

For “tgcaggtcccagcgcaatgt (antisense eT*eG*e[5mC]*eA*eG*dG*dT*d[5mC]*d[5mC]*d[5mC]*dA*dG*d[5mC]*dG*d[5mC]*eA*eA*eT*eG*eT) [ISIS 180819, 2′-MOE gapmer targeted to mouse RANKL]”, the “% INHIB (inhibition of mouse RANKL mRNA levels)” value [3] was “at least 40%”, the “inhibition of PTH-induced increase in RANKL mRNA expression” value ([1]; primary mouse osteoblast cells, 63 nM, 125 nM, 250 nM, or 500 nM, 24 hours, FuGENE 6, 10 nM PTH last 2 hours) was “able to inhibit the PTH-induced increase in RANKL mRNA expression” and the “% Inhibition of RANKL” value ([4]; intraperitoneal injection 15 mg/kg daily 2 weeks, proximal tibia, primer-probe set 1015) was 2%. The “% Inhibition of RANKL” value ([4]; intraperitoneal injection 15 mg/kg daily 2 weeks, proximal tibia, primer-probe set 1207) was 0%, the “% Inhibition of RANKL” value ([4]; intraperitoneal injection 30 mg/kg daily 2 weeks, calvaria, primer-probe set 1015) was 39% and the “% Inhibition of RANKL” value ([4]; intraperitoneal injection 30 mg/kg daily 2 weeks, calvaria, primer-probe set 1207) was 24%. The “% Inhibition of RANKL” value ([4]; intraperitoneal injection 30 mg/kg daily 2 weeks, proximal tibia, primer-probe set 1015) was 0%, the “% Inhibition of RANKL” value ([4]; intraperitoneal injection 30 mg/kg daily 2 weeks, proximal tibia, primer-probe set 1207) was 0% and the “% Inhibition of RANKL” value ([4]; intraperitoneal injection 50 mg/kg daily 2 weeks, calvaria, primer-probe set 1015) was 51%. The “% Inhibition of RANKL” value ([4]; intraperitoneal injection 50 mg/kg daily 2 weeks, calvaria, primer-probe set 1207) was 54%, the “% Inhibition of RANKL” value ([4]; intraperitoneal injection 50 mg/kg daily 2 weeks, proximal tibia, primer-probe set 1015) was 21% and the “% Inhibition of RANKL” value ([4]; intraperitoneal injection 50 mg/kg daily 2 weeks, proximal tibia, primer-probe set 1207) was 13%. The “inhibition of PTH-induced increase in RANKL mRNA expression in the proximal tibia and calvaria” value ([4]; mice, 2 weeks daily s.c. 30 or 50 mg/kg or i.p. 15, 30 or 50 mg/kg, 24 hours PTH infusion) was “capable of inhibiting the PTH-induced increase in RANKL mRNA expression; also recorded: greater inhibition observed in the calvaria”, the “% Inhibition of RANKL” value ([4]; subcutaneous injection 30 mg/kg daily 2 weeks, calvaria, primer-probe set 1015) was 38% and the “% Inhibition of RANKL” value ([4]; subcutaneous injection 30 mg/kg daily 2 weeks, calvaria, primer-probe set 1207) was 38%. For the same substance, the “% Inhibition of RANKL” value ([4]; subcutaneous injection 30 mg/kg daily 2 weeks, proximal tibia, primer-probe set 1015) was 5%, the “% Inhibition of RANKL” value ([4]; subcutaneous injection 30 mg/kg daily 2 weeks, proximal tibia, primer-probe set 1207) was 10% and the “% Inhibition of RANKL” value ([4]; subcutaneous injection 50 mg/kg daily 2 weeks, calvaria, primer-probe set 1015) was 60%. For the same substance, the “% Inhibition of RANKL” value ([4]; subcutaneous injection 50 mg/kg daily 2 weeks, calvaria, primer-probe set 1207) was 52%, the “% Inhibition of RANKL” value ([4]; subcutaneous injection 50 mg/kg daily 2 weeks, proximal tibia, primer-probe set 1015) was 32% and the “% Inhibition of RANKL” value ([4]; subcutaneous injection 50 mg/kg daily 2 weeks, proximal tibia, primer-probe set 1207) was 36%. The “serum calcium” value [5, 8] was 21 mg/dL, the “serum calcium” value [5, 9] was 17 mg/dL and the “serum calcium” value [5, 10] was 19 mg/dL. For the same substance, the “PTH-induced increase in serum calcium concentration” value ([5]; mice, s.c. two weeks 5, 15, 30 or 40 mg/kg, 24 hours PTH infusion) was “lessen the PTH-induced increase in serum calcium concentration”, the “RANKL mRNA, % inhib” value [6, 8] was 0 % inhib and the “RANKL mRNA, % inhib” value [6, 9] was 0 % inhib. The “RANKL mRNA, % inhib” value [6, 10] was 0 % inhib.

For “180819 (antisense eT*eG*e[5mC]*eA*eG*dG*dT*d[5mC]*d[5mC]*d[5mC]*dA*dG*d[5mC]*dG*d[5mC]*eA*eA*eT*eG*eT) [compound 180819]”, the “% INHIB (inhibition of mouse RANKL mRNA levels)” value [3] was 66%, the “% Inhibition of RANKL mRNA” value ([7]; 10 nM oligonucleotide) was 41% and the “% Inhibition of RANKL mRNA” value ([7]; 50 nM oligonucleotide) was 39%. The “% Inhibition of RANKL mRNA” value ([7]; 75 nM oligonucleotide) was 57%, the “% Inhibition of RANKL mRNA” value ([7]; 100 nM oligonucleotide) was 71% and the “% Inhibition of RANKL mRNA” value ([7]; 150 nM oligonucleotide) was 75%. For the same substance, the “% RANKL mRNA inhibition” value ([1]; 125 nM oligonucleotide 24 h) was 39%, the “% RANKL mRNA inhibition” value ([1]; 250 nM oligonucleotide 24 h) was 71% and the “% RANKL mRNA inhibition” value ([1]; 500 nM oligonucleotide 24 h) was 85%. For the same substance, the “% RANKL mRNA inhibition” value [2] was 19%.

With “gtcttacacatgtatagaca (antisense eG*eT*e[5mC]*eT*eT*dA*d[5mC]*dA*d[5mC]*dA*dT*dG*dT*dA*dT*eA*eG*eA*e[5mC]*eA) [ISIS 180814, 2′-MOE gapmer targeted to mouse RANKL]” the “% INHIB (inhibition of mouse RANKL mRNA levels)” value [3] was “at least 40%”, the “serum calcium” value [5, 8] was 22 mg/dL and the “serum calcium” value [5, 9] was 20 mg/dL. For the same substance, the “serum calcium” value [5, 10] was 18 mg/dL, the “serum calcium” value [5, 11] was 19 mg/dL and the “RANKL mRNA, % inhib” value [6, 8] was 0 % inhib. The “RANKL mRNA, % inhib” value [6, 9] was 0 % inhib, the “RANKL mRNA, % inhib” value [6, 10] was 27 % inhib and the “RANKL mRNA, % inhib” value [6, 11] was 6 % inhib.
